In patent publication US20230148599A1, “FUNGICIDAL MIXTURES CONTAINING PYRAZOLE DERIVATIVES” (FMC Corporation, priority 2020, published 2023):

Key:
Assay type in all cases: in vivo
Septoria tritici = test: Test A: wheat leaf blotch, preventive spray on wheat seedlings; details: 100 = 100% disease control, 0 = no control
From the text: (§1) General protocol for preparing test suspensions for Tests A-F: the test compounds were first dissolved in acetone in an amount equal to 3% of the final volume and then suspended at the desired concentration (in ppm) in acetone and purified water (50/50 mix by volume) containing 250 ppm of the surfactant PEG400 (polyhydric alcohol esters). The resulting test suspensions were then used in Tests A-F.
(§2) The test solution was sprayed to the point of run-off on wheat seedlings. The following day the seedlings were inoculated with a spore suspension of Septoria tritici (the causal agent of wheat leaf blotch) and incubated in a saturated atmosphere at 24° C. for 48 h, and then moved to a growth chamber at 20° C. for 17 days, after which time disease ratings were made.
(§3) A rating of 100 indicates 100% disease control and a rating of 0 indicates no disease control (relative to the controls). A dash (−) indicates the compound was not tested.

Phakopsora pachyrhizi = test: Test D: Asian soybean rust, preventive spray on soybean seedlings; details: 100 = 100% disease control, 0 = no control
From the text: as §1
The test solution was sprayed to the point of run-off on soybean seedlings. The following day the seedlings were inoculated with a spore suspension of Phakopsora pachyrhizi (the causal agent of Asian soybean rust) and incubated in a saturated atmosphere at 22° C. for 24 h and then moved to a growth chamber at 22° C. for 8 days, after which time visual disease ratings were made.
as §3

Botrytis cinerea = test: Test E: tomato Botrytis, preventive spray on tomato seedlings; details: 100 = 100% disease control, 0 = no control
From the text: as §1
(§4) The test suspension was sprayed to the point of run-off on tomato seedlings. The following day the seedlings were inoculated with a spore suspension of Botrytis cinerea (the causal agent of tomato Botrytis) and incubated in a saturated atmosphere at 20° C. for 48 h, and then moved to a growth chamber at 24° C. for 3 days, after which time visual disease ratings were made.
as §3

[1] = tested on: Puccinia recondita f. sp. tritici; test: Test B: wheat leaf rust, preventive spray on wheat seedlings; details: 100 = 100% disease control, 0 = no control
From the text: as §1
as §2, with “Puccinia recondita f. sp.” for “Septoria”, “rust)” for “blotch)”, “20°” for “24°”, “24” for “48”, “7” for “17”
as §3

Alternaria solani = test: Test F: tomato early blight, preventive spray on tomato seedlings; details: 100 = 100% disease control, 0 = no control
From the text: as §1
as §4, with “Alternaria solani” for “Botrytis cinerea”, “early blight)” for “Botrytis)”, “27°” for “20°”, “20°” for “24°”
as §3

[2] = tested on: Blumeria graminis f. sp. tritici; test: Test C: wheat powdery mildew, preventive spray on wheat seedlings; details: 50 ppm, 100 = 100% disease control, 0 = no control
From the text: as §1
The test suspension was sprayed to the point of run-off on wheat seedlings. The following day the seedlings were inoculated with a spore dust of Blumeria graminis f. sp. tritici, (also known as Erysiphe graminis f. sp. tritici, the causal agent of wheat powdery mildew) and incubated in a growth chamber at 20° C. for 8 days, after which time visual disease ratings were made.
as §3

Compound	Test A disease control rating (Septoria tritici; 50 ppm) [%]	Test D disease control rating (Phakopsora pachyrhizi; 50 ppm) [%]	Test E disease control rating (Botrytis cinerea; 50 ppm) [%]	Test B disease control rating ([1]; 50 ppm) [%]	Test F disease control rating (Alternaria solani; 50 ppm) [%]	Test C disease control rating [2] [%]	pest or weed control at 10 ppm (Septoria tritici; Zymoseptoria tritici, 456 h, 10 ppm, read-out: Test A disease control rating) [%]	pest or weed control at 50 ppm (Septoria tritici; Zymoseptoria tritici, 456 h, 50 ppm, read-out: Test A disease control rating) [%]	pest or weed control at 10 ppm (Phakopsora pachyrhizi; 216 h, 10 ppm, read-out: Test D disease control rating) [%]	pest or weed control at 50 ppm (Phakopsora pachyrhizi; 216 h, 50 ppm, read-out: Test D disease control rating) [%]	pest or weed control at 10 ppm (Botrytis cinerea; 120 h, 10 ppm, read-out: Test E disease control rating) [%]	pest or weed control at 50 ppm (Botrytis cinerea; 120 h, 50 ppm, read-out: Test E disease control rating) [%]	pest or weed control at 10 ppm ([1]; 192 h, 10 ppm, read-out: Test B disease control rating) [%]	pest or weed control at 50 ppm ([1]; 192 h, 50 ppm, read-out: Test B disease control rating) [%]	pest or weed control at 10 ppm (Alternaria solani; 120 h, 10 ppm, read-out: Test F disease control rating) [%]	pest or weed control at 50 ppm (Alternaria solani; 120 h, 50 ppm, read-out: Test F disease control rating) [%]
COc1ccc(-c2c(C)nn(C)c2Nc2ccc(OC)cc2[N+](=O)[O-])c(Cl)c1 [compound 187]	99	0	100	100	100	91	–	–	–	–	–	–	–	–	–	–
Cc1cc(F)c(Nc2c(-c3c(F)cccc3Cl)c(C)nn2C)c([N+](=O)[O-])c1 [compound 201]	100	98	99	100	99	99	–	–	–	–	–	–	–	–	–	–
CCn1nc(C)c(-c2ccc(F)cc2Cl)c1Nc1c(F)cccc1[N+](=O)[O-] [compound 71]	100	82	99	100	98	99	–	–	–	–	–	–	–	–	–	–
Cc1nn(C)c(Nc2ccccc2[N+](=O)[O-])c1-c1c(F)cc(F)cc1Br [compound 154]	99	0	99	80	51	98	–	–	–	–	–	–	–	–	–	–
Cc1nn(C)c(Nc2ccccc2[N+](=O)[O-])c1-c1c(F)cc(F)cc1Cl [compound 148]	100	13	99	99	100	98	–	–	–	–	–	–	–	–	–	–
CCc1nn(C)c(Nc2c(Cl)cccc2[N+](=O)[O-])c1-c1ccc(F)cc1F [compound 17]	100	0	99	92	9	94	–	–	–	–	–	–	–	–	–	–
CCc1nn(C)c(Nc2ccc(OC)cc2[N+](=O)[O-])c1-c1ccc(F)cc1F [compound 45]	100	0	99	86	33	95	–	–	–	–	–	–	–	–	–	–
COc1ccc(-c2c(C)nn(C)c2Nc2c(F)cccc2[N+](=O)[O-])c(C)c1 [compound 48]	100	0	97	95	97	89	–	–	–	–	–	–	–	–	–	–
Cc1nn(C)c(Nc2c(Cl)cc(Cl)cc2[N+](=O)[O-])c1-c1ccc(F)cc1Br [compound 37]	100	0	88	100	78	98	–	–	–	–	–	–	–	–	–	–
CCc1nn(C)c(Nc2c(F)cc(Br)cc2[N+](=O)[O-])c1-c1ccc(F)cc1F [compound 171]	100	0	97	91	88	99	–	–	–	–	–	–	–	–	–	–
COc1ccc(Nc2c(-c3c(F)cccc3F)c(C)nn2C)c([N+](=O)[O-])c1 [compound 87]	–	0	98	99	93	98	–	–	–	–	–	–	–	–	–	–
Cc1nn(C)c(Nc2ccccc2[N+](=O)[O-])c1-c1c(F)cccc1Cl [compound 136]	100	0	99	80	0	88	–	–	–	–	–	–	–	–	–	–
COc1ccc(Nc2c(-c3ccc(F)cc3Cl)c(C)nn2C)c([N+](=O)[O-])c1 [compound 119]	100	92	100	100	99	99	–	–	–	–	–	–	–	–	–	–
Cc1nn(C)c(Nc2c(Cl)cccc2[N+](=O)[O-])c1-c1ccc(F)cc1F [compound 79]	100	44	98	100	0	91	–	–	–	–	–	–	–	–	–	–
CCc1ccc(Nc2c(-c3ccc(F)cc3Cl)c(C)nn2C)c([N+](=O)[O-])c1 [compound 6]	–	0	55	74	0	27	–	–	–	–	–	–	–	–	–	–
CCOc1ccc(Nc2c(-c3ccc(F)cc3Cl)c(C)nn2C)c([N+](=O)[O-])c1 [compound 103]	97	0	83	80	0	50	–	–	–	–	–	–	–	–	–	–
Cc1nn(C)c(Nc2c(Cl)cc(Cl)cc2[N+](=O)[O-])c1-c1ccc(C#N)cc1Cl [compound 116]	99	0	63	99	82	56	–	–	–	–	–	–	–	–	–	–
COc1ccc(Nc2c(-c3ccc(F)cc3F)c(C)nn2C)c([N+](=O)[O-])c1 [compound 88]	–	0	99	97	9	84	–	–	–	–	–	–	–	–	–	–
Cc1ccc(Nc2c(-c3c(F)cc(F)cc3Cl)c(C)nn2C)c([N+](=O)[O-])c1 [compound 106]	–	0	99	100	68	98	–	–	–	–	–	–	–	–	–	–
Cc1ccc(Nc2c(-c3ccc(F)cc3F)c(C)nn2C)c([N+](=O)[O-])c1 [compound 107]	–	0	98	91	0	61	–	–	–	–	–	–	–	–	–	–
COc1ccc(Nc2c(-c3c(F)cc(F)cc3Cl)c(C)nn2C)c([N+](=O)[O-])c1 [compound 89]	–	80	99	100	99	99	–	–	–	–	–	–	–	–	–	–
CCc1nn(C)c(Nc2c(F)cccc2[N+](=O)[O-])c1-c1ccc(F)cc1Cl [Compound 72, 4-(2-chloro-4-fluorophenyl)-N-(2-fluoro-6-nitrophenyl)-3-ethyl-1-methyl-1H-pyrazol-5-amine]	–	–	–	–	–	–	100	100	12	31	98	98	85	100	63	99
